Test results reported in paper PMC13441969, “Zero-shot design of drug-binding proteins via neural iterative selection−expansion” (Nature, 2026).
“Also recorded” adds a separate entry of the source. Where a name gives a salt, the structure may show the parent alone.

How the values were obtained:
EPIC = assay: Fluorescence anisotropy of fluorescent ligands binding to EPIC; settings: for Kd / binding of ligand to EPIC (words): [ligand] = 50 nM; for Kd: 1:1 binding model; for binding of ligand to EPIC (words): dexamethasone and apixaban as FITC conjugates
Method: including the ProteinMPNN-designed sequences along with the Ala/Gly versions, are available […]
Fluorescence Polarization Experiments to Determine Binding Affinities
We performed fluorescence anisotropy experiments in a 384 -well plate -reader format to determine the binding affinities of protein s with various ligands (Supp. Fig. 15 and Supp. Table 6). We serially diluted an initial solution containing a high concentration of protein while keeping a constant concentration of ligand (50 nM) in each well. The buffer for these assays was composed of 1x PBS, pH 7.4, and 0.1% w/v PEG-8000. Camptothecin-class molecules (exatecan, camptothecin, belotecan, FL118, irinotecan) were excited at a wavelength of 360 nm using a BMG LabTech PHERAstar FSX plate reader or a BMG LabTech CLARIOstar Plus plate reader. We detected the resulting parallel and perpendicularly polarized emission at 440 nm. […]
excited using 482 nm filter (16 nm bandwidth) using a BMG LabTech CLARIOstar Plus plate reader, and parallel and perpendicularly polarized emissions were detected through a 530 nm filter (40 nm bandwidth). Data was fit using the quadratic form of a single-site binding model.
Gain settings for each molecule were calculated by auto-adjusting the focus on a well containing free ligand and buffer, setting the millipolarization (mP) of free ligand to mP = 35.
Fits to Fluorescence Anisotropy Data
Data from fluorescence anisotropy (r) experiments, which varied total protein concentration, [P]T for a fixed total ligand concentration, [L]T, was fit to a single-site binding […]
model (Equations 1 and 2, N = 1). […] For
EPIC and its mutants, confidence intervals of the fit parameters were determined from bootstrapping the residuals of the optimum fit (random residual selection with replacement) to create 1000 synthetic datasets, which were each separately fit to Equations 1 and 2. Parameter means and 95% confidence intervals were determined from the distribution of the parameters computed from the bootstrapped fits.
We performed separate protein titrations across three fixed exatecan concentration s (25 , 12.5 , and 5 nM) and measured fluorescence anisotropy of exatecan as a function of protein concentration . For each EPIC mutant, the dissociation constant (Kd) and anisotropy baseline (A min) were shared parameters across the three exatecan concentrations. Anisotropy maxima (Amax) and ligand concentration ([L]T) were fit locally. We fit the ligand concentrations locally (to within 15% of the target concentration) to account for experimental discrepancies. Code for performing the fitting is provided in Zenodo16. […]

[1] = design: method as in PMID 35318309, PMID 31620223; settings: read-out: cellular half-maximum inhibitory concentration (IC50); cited from earlier work
[2] = Exatecan lactone hydrolysis by time-resolved absorbance; assay type: physicochemical; settings: room temperature, pH 7.4; 3 half-lives
[3] = design: method as in PMID 11595695; settings: cited from earlier work

Row | Compound | Kd (EPIC) [µM] | binding of ligand to EPIC (words) (EPIC) | ΔΔG (change in binding free energy) relative to the exatecan–EPIC complex (EPIC) [kcal/mol] | other results
1 | CC[C@@]1(O)C(=O)OCc2c1cc1n(c2=O)Cc2c-1nc1cc(F)c(C)c3c1c2[C@@H](N)CC3 [exatecan, Exatecan mesylate] | 0.12 | – | – | fold tighter binding of EPIC to exatecan than to any other ligand tested (EPIC): at least 50 fold; IC50 [1]: ~0.001 µM; time for nearly complete conversion from C to O form [2]: ≤ 6 h; half-life of hydrolysis of free drug in plasma ([3]; plasma): around 2 h; steady-state level of lactone form in human plasma ([3]; within 10 h): 15%
2 | COc1ccc(-n2nc(C(=O)NCCOCCOCCNC(=S)Nc3ccc(-c4c5ccc(=O)cc-5oc5cc(O)ccc45)c(C(=O)O)c3)c3c2C(=O)N(c2ccc(N4CCCCC4=O)cc2)CC3)cc1 [apixaban-peg-FITC] | – | did not show any experimentally detectable binding | – | –
3 | C[C@@H]1C[C@H]2[C@@H]3CCC4=CC(=O)C=C[C@]4(C)[C@@]3(F)[C@@H](O)C[C@]2(C)[C@@]1(O)C(=O)CO [dexamethasone] | – | no binding; also recorded: does not bind | – | binding of ligand to EPIC (words) (EPIC; listed as Dexamethasone): no appreciable binding
4 | CCc1c2c(nc3ccc(OC(=O)N4CCC(N5CCCCC5)CC4)cc13)-c1cc3c(c(=O)n1C2)COC(=O)[C@]3(O)CC [irinotecan] | – | not to bind; also recorded: no appreciable binding | – | binding of ligand to EPIC (words) (EPIC; listed as Irinotecan): negligible binding
5 | CC[C@@]1(O)C(=O)OCc2c1cc1n(c2=O)Cc2cc3cc4c(cc3nc2-1)OCO4 [FL118] | 6 | – | 2.3 | –
6 | CC[C@@]1(O)C(=O)OCc2c1cc1n(c2=O)Cc2c-1nc1ccccc1c2CCNC(C)C [belotecan, Belotecan hydrochloride] | 19 | – | 3.0 | –
7 | CC[C@@]1(O)C(=O)OCc2c1cc1n(c2=O)Cc2cc3ccccc3nc2-1 [camptothecin, Camptothecin] | 90 | – | 3.9 | –
8 | COc1ccc(-n2nc(C(N)=O)c3c2C(=O)N(c2ccc(N4CCCCC4=O)cc2)CC3)cc1 [apixaban, Apixaban] | – | no appreciable binding; also recorded: does not bind | – | –
